System: APF activity on primary normal bladder epithelial cells
Test: Blocking of APF antiproliferative activity by recombinant growth factors (^3H-thymidine incorporation)
Format: cell-based, human
Settings: co-incubation with low molecular weight IC urine fractions; HB-EGF 10, 30 and 100 ng/ml; EGF, IGF1 up to about 12 and 25 fold normal levels
Method: ^3H-Thymidine Incorporation. Primary normal adult human bladder epithelial cells (HBE) were grown from biopsies obtained at autopsy from patients who had no history of bladder disorder. HBE cells were plated at a density of 1×10^4 cells/well onto 96 well tissue culture plates and incubated at 37° C. overnight (resulting in approximately 60% confluence the following day). The medium was then changed to MEM containing only 1% glutamine and 1% antibiotic/ antimycotic solution, and the cells were incubated at 37° C. overnight. […] Cells were then trypsinized, and insoluble cell contents harvested and methanol-fixed onto glass fiber filter paper, as previously described^62; the amount of radioactivity incorporated was determined as counts per minute using a Beckman LS 3801 scintillation counter. […]
To determine whether the antiproliferative effect of the APF on bladder epithelial cells might be due to a decrease in HB-EGF production, primary normal bladder epithelial cells were simultaneously incubated with varying levels of recombinant HB-EGF, EGF, or IGF1 and low molecular weight urine fractions from IC patients. […] This effect was evident using a concentration of HB-EGF (10 ng/ml) in the range previously determined for normal controls (2-22 ng/ml, mean 6.33 ng/ml) 12 as well as higher concentrations (30 and 100 ng/ml). […]

Substance	inhibition of IC urine antiproliferative activity by recombinant growth factor
epidermal growth factor [EGF]	insufficient to completely inhibit APF activity
insulin-like growth factor 1 [IGF1]	insufficient to completely inhibit APF activity
